Experimental data reported in the NIST ThermoML archive (doi:10.1016/j.jct.2015.08.023).
Values joined by “and” are separate entries in the source; they are usually repeats but may differ in a detail not shown here. Identical values can stand only once.

Details: Liquid, Closed cell (Static) method

CN(C)CCCN [N,N-dimethyl-1,3-propanediamine]
Details	vapor or sublimation pressure
273.04 K	0.183 kPa
283.06 K	0.381 kPa
283.15 K	0.3844 kPa
293.13 K	0.749 kPa
293.15 K	0.7536 kPa
303.15 K	1.397 kPa
303.16 K	1.396 kPa
313.15 K	2.464 kPa
313.21 K	2.478 kPa
323.15 K	4.162 kPa
323.27 K	4.186 kPa
333.15 K	6.763 kPa
333.32 K	6.828 kPa
343.15 K	10.61 kPa
343.37 K	10.73 kPa and 10.72 kPa
353.15 K	16.15 kPa
353.41 K	16.31 kPa
363.15 K	23.9 kPa
363.44 K	24.1 kPa

CCN(CC)CCCN [N,N-diethylpropane-1,3-diamine]
Details	vapor or sublimation pressure
263.16 K	0.014 kPa
273.05 K	0.034 kPa
273.15 K	0.0338 kPa
283.15 K	0.0768 kPa
283.27 K	0.077 kPa
293.15 K	0.1631 kPa
293.22 K	0.163 kPa
303.14 K	0.326 kPa
303.15 K	0.3257 kPa
303.16 K	0.325 kPa
313.15 K	0.6164 kPa
313.16 K	0.616 kPa
313.18 K	0.616 kPa
323.15 K	1.112 kPa
323.16 K	1.114 kPa and 1.112 kPa
333.15 K	1.922 kPa
333.18 K	1.94 kPa
343.15 K	3.199 kPa
343.21 K	3.234 kPa
353.15 K	5.143 kPa
353.19 K	5.161 kPa and 5.162 kPa
363.15 K	8.017 kPa
363.25 K	7.965 kPa

CNCCCN [N-methyl-1,3-diaminopropane]
Details	vapor or sublimation pressure
273 K	0.089 kPa
273.15 K	0.089 kPa
283.15 K	0.204 kPa
283.37 K	0.205 kPa
293.15 K	0.4319 kPa
293.47 K	0.431 kPa
303.11 K	0.861 kPa
303.15 K	0.8539 kPa
313.15 K	1.591 kPa
313.18 K	1.607 kPa
323.15 K	2.814 kPa
323.26 K	2.83 kPa and 2.828 kPa
333.15 K	4.755 kPa
333.23 K	4.764 kPa
333.25 K	4.764 kPa
343.15 K	7.716 kPa
343.26 K	7.745 kPa
343.28 K	7.742 kPa
343.3 K	7.74 kPa
352.54 K	11.85 kPa
353.15 K	12.08 kPa
353.24 K	12.14 kPa
362.82 K	18.1 kPa
362.84 K	18.11 kPa
363.15 K	18.31 kPa
372.74 K	26.61 kPa
372.76 K	26.61 kPa
382.84 K	38.34 kPa
382.87 K	38.35 kPa
392.92 K	53.96 kPa
392.95 K	53.96 kPa
402.59 K	73.4 kPa
402.61 K	73.41 kPa
422.46 K	129.8 kPa and 129.79 kPa
422.51 K	129.84 kPa
432.4 K	169.97 kPa and 170.02 kPa
